Measurements as given in patent publication US20260207565A1, “COMPOUNDS THAT INHIBIT PKMYT1” (Exelixis, Inc., priority 2022, published 2026).

Legend:
[1] = target: T1, PKMYT1 (Homo sapiens, UniProt Q99640); assay: ADP-Glo PKMYT1 ATP-depletion assay; conditions: 50 nM PKMYT1, 13.3 nM CDK1, 88 μM ATP, 120 minutes at RT, read-out: Biochemical IC50
T1 construct: PKMYT1 (93 kD, full length, N-terminal GST tag from Signal Chem); GST (N); purchased Signal Chem
T1 sequence (Q99640 1-499): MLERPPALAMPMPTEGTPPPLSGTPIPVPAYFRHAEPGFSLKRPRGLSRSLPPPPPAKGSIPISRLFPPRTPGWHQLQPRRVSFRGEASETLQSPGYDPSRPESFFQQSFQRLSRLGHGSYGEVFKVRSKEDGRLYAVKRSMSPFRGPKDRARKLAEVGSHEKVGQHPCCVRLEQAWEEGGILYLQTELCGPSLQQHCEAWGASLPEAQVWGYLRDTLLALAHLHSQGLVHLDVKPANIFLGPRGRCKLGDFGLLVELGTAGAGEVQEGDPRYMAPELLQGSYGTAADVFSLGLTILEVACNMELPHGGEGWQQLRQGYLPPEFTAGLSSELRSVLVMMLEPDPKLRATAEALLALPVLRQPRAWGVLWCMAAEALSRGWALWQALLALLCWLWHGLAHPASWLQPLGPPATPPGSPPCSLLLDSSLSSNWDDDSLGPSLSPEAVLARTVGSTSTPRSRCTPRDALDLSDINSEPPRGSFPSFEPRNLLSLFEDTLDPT
Procedure: (§1) Biochemical IC50 values were determined via ADP-Glo™ assay. Cellular IC50 values were determined via AlphaLISA assay.
ADP-Glo™ PKMYT1 ATP-depletion assay. The activity of PKMYT1 is measured using a luciferase-luciferin based ATP detection reaction to quantify ATP depletion resulting from kinase-catalyzed phosphoryl transfer to CDK1 or autophosphorylation of PKMYT1. The ADP generated as a byproduct of the reaction is converted to ATP and used to drive a luciferase reaction. Test compounds were dissolved in DMSO and dispensed into Corning 3824 384-well plates prior to the experiment such that the final DMSO concentration was <10%. To the compounds was added 3 μL of PKMYT1 (93 kD, full length, N-terminal GST tag from Signal Chem). The reaction was started by the addition of 2 μL of CDK1 (58 kDa, full length, N-terminal GST tag from Signal Chem) and ATP in assay buffer (50 mM Hepes, 40 mM NaCl, 10 mM MgCl2, 1 mM DTT, 0.1 mg/mL BSA, 2.5 mM MnCl2). Final assay concentrations were 50 nM PKMYT1, 13.3 nM CDK1, and 88 μM ATP. Plates were centrifuged for 1 minute at 1000 RPM and incubated at RT for 120 minutes. After the incubation period, ADP-Glo™ reagent was added and the plates were incubated for another 40 minutes before finally adding the kinase detection reagent, 30 minutes after the addition, plates were placed on a PHERAstar® plate reader and read using the Luminescence Protocol, integration time at 0.5 seconds.

[2] = test system: phosphorylation of CDK1 at Thr14 in HCC1806 cells; assay: Cell lysate AlphaLISA assay measuring inhibition of phosphorylation of CDK1 Thr14; assay type: cell-based; conditions: Homo sapiens, HCC1806, 4 h, compounds incubated 4 hours, AlphaLISA SureFire Ultra CDK1 Thr14, read-out: Cellular IC50
Procedure: as §1
Cell lysate AlphaLISA® assay measuring inhibition of phosphorvlation of CDK1 Thr14. Inhibition of phosphorylation of CDK1 at Thr14 was determined using AlphaLISAn SureFire® Ultra™ Kit from Perkin Elmer (ALSU-PCDK1-A10K). HCC1806 cells were seeded at 2K cells per well (50 μl/well) in 384-well plates (Corning 3570) and stored overnight at 37° C. and 5% CO2. The following day, the compounds dissolved in DMSO were introduced to the cells and incubated for 4 hours at 37° C. and 5% CO2. The cells were then washed with PBS using Blue® Washer and 10 μl of lysis buffer containing protease inhibitor was added. The plate was placed on an orbital shaker (at 4° C.) for 30 minutes and stored overnight at −80° C. for complete lysing. The next day, the plates were thawed at room temperature for at least 30 min. Reagents were prepared in a dimmed light setting (<100 lumens). The assay was run by first adding 5 μl of the acceptor mix (reaction buffer 1: reaction buffer 2:activation buffer:acceptor beads 47:47:4:2), covering the plate with foil, shaking for 2 minutes, and incubating at RT for 60 minutes. The donor mix (dilution buffer:donor beads 47:3) was then added at 5 μl per well, placed on the shaker for 2 minutes and incubated at RT for 60 minutes before reading the plates on a PHERAstar® plate reader. The results were normalized to DMSO (0% Inhibition) and 3 μM of reference compound.

Compound | IC50 [1] [nM] | IC50 [2] [nM]
Cc1ccc(O)c(C)c1-c1c(N)c(C(N)=O)nc2c1c(C(N)=O)nn2C (atropisomer, axis not shown; (M)) [Compound 74, (M)-5-Amino-4-(3-hydroxy-2,6-dimethylphenyl)-1-methyl-1H-pyrazolo[3,4-b]pyridine-3,6-dicarboxamide] | < 50 | < 50
CCn1cc(C(N)=O)c2c(-c3c(C)ccc(O)c3C)c(N)c(C(N)=O)nc21 (atropisomer, axis not shown; (M)) [Compound 76, (M)-5-Amino-1-ethyl-4-(3-hydroxy-2,6-dimethylphenyl)-1H-pyrrolo[2,3-b]pyridine-3,6-dicarboxamide] | < 50 | < 50
Cc1c(O)cccc1-c1c(N)c(C(N)=O)nc2c1c(C#N)cn2-c1ncccc1F (atropisomer, axis not shown; (M)) [Compound 78, (M)-5-Amino-3-cyano-1-(3-fluoropyridin-2-yl)-4-(3-hydroxy-2-methylphenyl)-1H-pyrrolo[2,3-b]pyridine-6-carboxamide] | < 50 | < 50
Cc1c(O)cccc1-c1c(N)c(C(N)=O)nc2c1c(-c1c[nH]nn1)cn2C (atropisomer, axis not shown; (M)) [Compound 90, (M)-5-amino-4-(3-hydroxy-2-methylphenyl)-1-methyl-3-(1H-1,2,3-triazol-4-yl)-1H-pyrrolo[2,3-b]pyridine-6-carboxamide] | < 50 | < 50
CCn1cc(-c2cn[nH]c2)c2c(-c3cccc(O)c3C)c(N)c(C(N)=O)nc21 (atropisomer, axis not shown; (M)) [Compound 91, (M)-5-amino-1-ethyl-4-(3-hydroxy-2-methylphenyl)-3-(1H-pyrazol-4-yl)-1H-pyrrolo[2,3-b]pyridine-6-carboxamide] | < 50 | < 50
CCn1cc(C#N)c2c(-c3cccc(O)c3C)c(N)c(C(N)=O)nc21 (atropisomer, axis not shown; (M)) [Compound 92, (M)-5-amino-3-cyano-1-ethyl-4-(3-hydroxy-2-methylphenyl)-1H-pyrrolo[2,3-b]pyridine-6-carboxamide] | < 50 | < 50
CCn1cc(C(N)=O)c2c(-c3cccc(O)c3C)c(N)c(C(N)=O)nc21 (atropisomer, axis not shown; (M)) [Compound 96, (M)-5-amino-1-ethyl-4-(3-hydroxy-2-methylphenyl)-1H-pyrrolo[2,3-b]pyridine-3,6-dicarboxamide] | < 50 | < 50
Cc1ccc(O)c(C)c1-c1cc(C(N)=O)nc2c1c(C#N)cn2-c1ncccc1F (atropisomer, axis not shown; (P)) [Compound 68, (P)-3-Cyano-1-(3-fluoropyridin-2-yl)-4-(3-hydroxy-2,6-dimethylphenyl)-1H-pyrrolo[2,3-b]pyridine-6-carboxamide] | < 50 | < 50
Cc1ccc(O)c(C)c1-c1c(N)c(C(N)=O)cc2c1ncn2C(F)(F)F (atropisomer, axis not shown; (P)) [Compound 70, (P)-5-Amino-4-(3-hydroxy-2,6-dimethylphenyl)-1-(trifluoromethyl)-1H-benzo[d]imidazole-6-carboxamide] | < 50 | < 50
CCn1cc(-c2ncon2)c2c(-c3c(C)ccc(O)c3C)cc(C(N)=O)nc21 (atropisomer, axis not shown; (P)) [Compound 71, (P)-1-Ethyl-4-(3-hydroxy-2,6-dimethylphenyl)-3-(1,2,4-oxadiazol-3-yl)-1H-pyrrolo[2,3-b]pyridine-6-carboxamide] | < 50 | < 50
Cc1ccc(O)c(C)c1-c1c(N)c(C(N)=O)nc2c1ncn2C(F)F (atropisomer, axis not shown; (P)) [Compound 72, (P)-6-Amino-3-(difluoromethyl)-7-(3-hydroxy-2,6-dimethylphenyl)-3H-imidazo[4,5-b]pyridine-5-carboxamide] | < 50 | < 50
Cc1ccc(O)c(C)c1-c1c(N)c(C(N)=O)nc2c1ncn2C1CC(F)(F)C1 (atropisomer, axis not shown; (P)) [Compound 75, (P)-6-amino-3-(3,3-difluorocyclobutyl)-7-(3-hydroxy-2,6-dimethylphenyl)-3H-imidazo[4,5-b]pyridine-5-carboxamide] | < 50 | < 50
CCn1cnc2c(-c3c(C)ccc(O)c3C)c(N)c(C(N)=O)nc21 (atropisomer, axis not shown; (P)) [Compound 81, (P)-6-amino-3-ethyl-7-(3-hydroxy-2,6-dimethylphenyl)-3H-imidazo[4,5-b]pyridine-5-carboxamide] | < 50 | < 50
Cc1ccc(O)c(C)c1-c1c(N)c(C(N)=O)cc2c1ncn2C(F)F (atropisomer, axis not shown; (P)) [Compound 85, (P)-5-amino-1-(difluoromethyl)-4-(3-hydroxy-2,6-dimethylphenyl)-1H-benzo[d]imidazole-6-carboxamide] | < 50 | < 50
Cc1ccc(O)c(C)c1-c1c(N)c(C(N)=O)nc2c1ncn2CC(F)(F)F (atropisomer, axis not shown; (P)) [Compound 86, (P)-6-amino-7-(3-hydroxy-2,6-dimethylphenyl)-3-(2,2,2-trifluoroethyl)-3H-imidazo[4,5-b]pyridine-5-carboxamide] | < 50 | < 50
Cc1ccc(O)c(C)c1-c1c(N)c(C(N)=O)cc2c1ncn2-c1ncccc1F (atropisomer, axis not shown; (P)) [Compound 87, (P)-5-amino-1-(3-fluoropyridin-2-yl)-4-(3-hydroxy-2,6-dimethylphenyl)-1H-benzo[d]imidazole-6-carboxamide] | < 50 | < 50
Cc1ccc(O)c(C)c1-c1cc(C(N)=O)nc2c1c(C#N)cn2C(C)C (atropisomer, axis not shown; (P)) [Compound 88, (P)-3-cyano-4-(3-hydroxy-2,6-dimethylphenyl)-1-isopropyl-1H-pyrrolo[2,3-b]pyridine-6-carboxamide] | < 50 | < 50
Cc1ccc(O)c(C)c1-c1cc(C(N)=O)nc2c1c(Cl)cn2C (single isomer, unassigned) [Compound 31] | ≥ 5000 | –
Cc1ccc(O)c(C)c1-c1cc(C(N)=O)nc2c1c(Cl)cn2C (single isomer, unassigned) [Compound 32] | 50 to 500 | –
Cc1ccc(O)c(C)c1-c1cc(C(N)=O)nc2c1c(C#N)c(C)n2C (single isomer, unassigned) [Compound 33] | 1000 to 5000 | –
Cc1ccc(O)c(C)c1-c1cc(C(N)=O)nc2c1c(C#N)c(C)n2C (single isomer, unassigned) [Compound 34] | < 50 | –
Cc1c(Cl)cncc1-c1c(N)c(C(N)=O)nc2c1c(C#N)cn2C [Compound 10] | 50 to 500 | –
Cc1c(Cl)cncc1-c1c(N)c(C(N)=O)nc2c1c(C#N)cn2C [Compound 11] | < 50 | –
